Assay results taken from patent publication US20200179341A1, “METHODS AND COMPOSITIONS FOR TREATING MULTIPLE MYELOMA AND INCREASING ANTIBODY DEPENDENT CELL CYTOTOXICITY BY TARGETING THE ARYL HYDROCARBON RECEPTOR” (priority 2016, published 2020).

Legend:
[1] = test system: MM cell targets; assay: Antibody-mediated ADCC with AHR antagonism (cytotoxicity co-culture); assay type: cell-based
Protocol: A series of in vitro studies are conducted in which immune effector cells and/or MM cell targets are pre-treated with vehicle or CH233191 prior to cytotoxicity co-culture assay. Accounting for the baseline, direct effect of AHR antagonism on MM cell viability, any additive rate of target cell death in the combinatorial condition can be studied, in particular when both effectors and targets are pre-exposed to CH233191. Using validated techniques (Benson Blood 2010), the effects of CH233191 on immune effector cell expansion, expression of activating receptors, and abilities to traffic to, acquire, and lyse MM targets is studied. These experiments are conducted in the presence of therapeutic monoclonal antibodies in order to assess whether AHR antagonism may enhance ADCC-mediated immunotherapy (e.g., Elotuzumab, Daratumumab/Isatuximab/Rituximab/Milatuzumab).

[2] = test system: MM cells; assay: Surface expression (MFI) of MM antigens targetable by therapeutic monoclonal antibodies after AHR inhibition; assay type: cell-based
Protocol: AHR antagonism enhances MM expression of antigens targetable by therapeutic monoclonal antibodies. […] Accordingly, NK-cell mediated killing of MM tumor cells is tested by combining AHR antagonism of effector cells and MM targets with therapeutic monoclonal antibodies.

[3] = test system: MM tumor cell burden; assay: CH233191 by oral gavage in a disseminated murine MM model
[4] = test system: NK cell precursors; assay: NK cell development and function from AHR-expressing innate lymphoid cell precursors; assay type: cell-based; conditions: compared to control and AHR agonist (FICZ) treated cells; FIG. 2
[5] = test system: NK cell precursors; conditions: Roeven Blood 2014; cited from earlier work

SMILES: Cc1ccccc1N=Nc1ccc(NC(=O)c2ccnn2C)c(C)c1 [CH233191]
- Elotuzumab-mediated ADCC ([1]; FIG. 9, with Elotuzumab): appears to enhance
- Daratumumab-mediated ADCC ([1]; FIG. 10, with Daratumumab): appears to enhance
- MFI (CH233191), CD20 ([2]; surface antigen CD20, antibody Rituximab, DMSO control MFI 321): 753
- MFI (CH233191), CD38 ([2]; surface antigen CD38, antibodies Daratumumab, Isatuximab, DMSO control MFI 2959): 6110
- MFI (CH233191), CD74 ([2]; surface antigen CD74, antibody Milatuzumab, DMSO control MFI 761): 1367
- MFI (CH233191), SLAMF7 (CS1) ([2]; surface antigen SLAMF7 (CS1), antibody Elotuzumab, DMSO control MFI 1946): 2999
- oral bioavailability ([3]; difficulties with solubilization in corn oil for gavage): questionable
- apparent reduction in MM tumor cell burden ([3]; oral gavage in corn oil, versus vehicle-treated controls): 2 of 5
- survival outcome ([3]; oral gavage, disseminated murine MM model): all mice died of progressive MM
- acquisition of cytokine production and cytotoxicity capabilities [4]: rapid acquisition of cytokine production as well as cytotoxicity capabilities

SMILES: CC(C)n1cnc2c(NCCc3ccc(O)cc3)nc(-c3csc4ccccc34)nc21 [Stemreginin 1]
- acquisition of NK cell function (corroboration) [5]: corroborated this finding
